Measured values published in patent publication US20070275052A1, “Pharmaceutical compositions containing sterol inhibitors” (Glenmark Pharmaceuticals Limited, priority 2006, published 2007).

Experiment: Initial experiments: drug release of ezetimibe having particle size about 25 microns
Assay type: physicochemical
Settings: ezetimibe particle size about 25 microns
Excerpt: The pharmaceutical compositions of present invention can be prepared with techniques well known in the art, preferably, direct compression, dry granulation and wet granulation.

release of the drug: 40-50%
SMILES: O=C1[C@H](CC[C@H](O)c2ccc(F)cc2)[C@@H](c2ccc(O)cc2)N1c1ccc(F)cc1 [ezetimibe, Ezetimibe]
